In the PolyMetriX glass transition set:

In order of rising glass transition temperature:
1. *O[Si](*)(C)CCCC(=O)O (repeat unit)  -29.00 °C
2. *CCC(*)(C)C (repeat unit)  -12.00 °C
3. *CC(*)(CC(=O)OCCOC)C(=O)OCCOC (repeat unit)  34.00 °C
4. *CC(*)C(=O)OCCOc1ccc(C(=O)Oc2ccc(OC(=O)c3ccc(OCCCCC)cc3)cc2)cc1 (repeat unit)  46.00 °C
5. *O[Si](C)(C)CCC/N=C1C=C(O)/C(=N\CCC[Si](*)(C)C)C=C\1O (repeat unit)  70.34 °C
6. *CC(*)c1ccc(C(=O)OCCCC)cc1 (repeat unit)  76.00 °C
7. *Oc1ccc(CNC(=O)c2cccc(C(=O)NCc3ccc(OC4COC5C(*)COC45)cc3)c2)cc1 (repeat unit)  83.00 °C
8. *c1cc(Br)c(-c2c(Br)cc(N3C(=O)c4ccc(-c5ccc6c(c5)C(=O)N(*)C6=O)cc4C3=O)cc2C(=O)OCCCCCCCCCCCC)c(C(=O)OCCCCCCCCCCCC)c1 (repeat unit)  108.00 °C
9. *Oc1ccc(C(CCCC)(CCCC)c2ccc(OC(*)=O)cc2)cc1 (repeat unit)  113.00 °C
10. *Oc1ccc(C(CC)(CC)c2ccc(OC(*)=S)cc2)cc1 (repeat unit)  121.00 °C
11. *Oc1c([2H])c([2H])c(S(=O)(=O)c2c([2H])c([2H])c(Oc3c([2H])c([2H])c(C(c4c([2H])c([2H])c(*)c([2H])c4[2H])(C([2H])([2H])[2H])C([2H])([2H])[2H])c([2H])c3[2H])c([2H])c2[2H])c([2H])c1[2H] (repeat unit)  175.00 °C
12. *CC(*)(C)C(=O)OC1CC2CCC1(C)C2(C)C (repeat unit)  180.50 °C
13. *c1ccc(Oc2ccc(C(=O)c3cccc(C(=O)c4ccc(Oc5ccc(-c6cc(*)n(-c7ccccc7)n6)cc5)cc4)c3)cc2)cc1 (repeat unit)  190.00 °C
14. *C(=O)c1ccc(N(*)C)cc1 (repeat unit)  197.00 °C
15. *Oc1ccc(C2(c3ccc(OC(=O)CCCC(*)=O)cc3)c3ccccc3-c3ccccc32)cc1 (repeat unit)  207.00 °C
16. *c1ccc2c(c1)C(=O)N(c1ccc(Oc3ccc(N4C(=O)c5ccc(C(F)(F)C(F)(F)C(*)(F)F)cc5C4=O)cc3)cc1)C2=O (repeat unit)  222.00 °C
17. *Nc1ccc(/C=C/c2ccc(NC(=C(C#N)C#N)c3ccc(C(*)=C(C#N)C#N)cc3)cc2)cc1 (repeat unit)  250.00 °C
18. *C(=O)Nc1ccc(Oc2ccc(Oc3ccc(NC(=O)c4ccc5c(c4)C(=O)N(c4ccc(Oc6ccc(C7(c8ccc(Oc9ccc(N%10C(=O)c%11ccc(*)cc%11C%10=O)cc9)cc8)CC8CC7C7CCCC87)cc6)cc4)C5=O)cc3)cc2)cc1 (repeat unit)  257.00 °C
19. *c1ccc(Oc2ccc(Oc3ccc(-n4c(=O)c5cc6c(=O)n(*)c(=O)c6cc5c4=O)cc3)cc2C)cc1 (repeat unit)  310.00 °C
20. *Nc1ccc(C(C)(C)c2ccc(NC(=O)c3cc(C(*)=O)cc(N4C(=O)C5C6CCC(C6)C5C4=O)c3)cc2)cc1 (repeat unit)  311.00 °C
21. *C(=O)Nc1ccc(Oc2ccc(C3(c4ccc(Oc5ccc(NC(=O)c6ccc7c(c6)C(=O)N(c6ccc(N8C(=O)c9ccc(*)cc9C8=O)cc6)C7=O)cc5)cc4)NC(=O)c4ccccc43)cc2)cc1 (repeat unit)  322.00 °C
22. *CC(*)C(=O)Oc1ccc(Cl)cc1 (repeat unit)  330.00 °C
23. *C(=O)c1ccc2c(c1)C(=O)N(c1ccc3c(c1)C(=O)c1cc(N4C(=O)c5ccc(*)cc5C4=O)ccc1-3)C2=O (repeat unit)  331.00 °C
24. *Nc1ccc(NC(=O)c2ccc(NC(=O)c3cc(NC(=O)C45CC6CC(CC(C6)C4)C5)cc(C(*)=O)c3)cc2)cc1 (repeat unit)  365.00 °C
